Measurements published in patent US11607422B2, “Uttroside B and derivatives thereof as therapeutics for hepatocellular carcinoma” (Rajiv Gandhi Centre for Biotechnology, an Autonomous …, priority 2016, dated 2023).

Tests used:
HCT-116 = test: MTT cell viability assay in HCT-116 cells; assay type: cell-based; details: 72 h
Method: FIG. 2A is a graph comparison of IC50 of Uttroside B in a panel of cancer cells of different origin. The cancer cell lines HeLa, A375, HepG2, MDA-MB-231, HL 60, A549 and HCT116 were treated with Uttroside B as indicated, incubated for 72 h and the cell viability was assessed by MTT assay. FIG. 2B is a graph showing dose dependent effect of Uttroside B in the liver cancer cell lines and in normal immortalized hepatocytes. The liver cancer cell lines HepG2, Hep3B, SKHEP-1, Huh-7 and normal hepatocytes (Chang liver), were treated with Uttroside B incubated for 72 h and the cell viability was assessed by MTT assay. FIG. 2C is a graph comparison of IC50 of Uttroside B with sorafenib. HepG2 cells were treated with Uttroside B as indicated, incubated for 72 h, and the cell viability was assessed by MTT assay. […] The clones developed were counted and plotted as a graph. Colony containing more than four cells was counted as one clone. […]
MTT [3-(4,5-dimethylthiazole-2-yl)-2,5-diphenyltetrazolium bromide] assay is a standard colorimetric assay, suitable for analyzing proliferation, viability, and cytotoxicity. […] At the end of incubation, the optical density was measured at 570 nm using ELISA plate reader (Bio-Rad). The relative cell viability in percentage was calculated as (A570 of treated samples/A570 of untreated samples)×100. […]

HepG2 cells = test: Phase contrast microscopy of morphological changes in HepG2 cells; assay type: cell-based, human
Method: FIG. 2A is a graph comparison of IC50 of Uttroside B in a panel of cancer cells of different origin. The cancer cell lines HeLa, A375, HepG2, MDA-MB-231, HL 60, A549 and HCT116 were treated with Uttroside B as indicated, incubated for 72 h and the cell viability was assessed by MTT assay. FIG. 2B is a graph showing dose dependent effect of Uttroside B in the liver cancer cell lines and in normal immortalized hepatocytes. The liver cancer cell lines HepG2, Hep3B, SKHEP-1, Huh-7 and normal hepatocytes (Chang liver), were treated with Uttroside B incubated for 72 h and the cell viability was assessed by MTT assay. FIG. 2C is a graph comparison of IC50 of Uttroside B with sorafenib. HepG2 cells were treated with Uttroside B as indicated, incubated for 72 h, and the cell viability was assessed by MTT assay. FIG. 2D is an image of the morphological changes induced by Uttroside B in HepG2 cells. […] FIG. 2E is an image showing Uttroside B inhibits the clonogenic potential of HepG2 cells. HepG2 cells were treated with different concentrations of Uttroside B for 72 h and the clonogenic assay was performed. FIG. 2F is a graph comparison of efficacy of Uttroside B in inhibiting the clonogenic potential of HepG2 cells. The clones developed were counted and plotted as a graph. Colony containing more than four cells was counted as one clone. […]

**Q.** How did the IC50 (HCT-116) turn out when `C[C@H](CC[C@@]1(O)O[C@H]2C[C@H]3[C@@H]4CC[C@H]5C[C@@H](O[C@@H]6O[C@H](CO)[C@H](O[C@@H]7O[C@H](CO)[C@@H](O)[C@H](O[C@@H]8OC[C@@H](O)[C@H](O)[C@H]8O)[C@H]7O[C@@H]7O[C@H](CO)[C@@H](O)[C@H](O)[C@H]7O)[C@H](O)[C@H]6O)CC[C@]5(C)[C@H]4CC[C@]3(C)[C@H]2[C@@H]1C)CO[C@@H]1O[C@H](CO)[C@@H](O)[C@H](O)[C@H]1O` [Uttroside B] was run?
**A.** 6 µM

**Q.** And the “morphological changes characteristic of apoptosis” value (HepG2 cells; 72 h, dose dependent)?
**A.** Nuclear condensation, membrane blebbing and formation of apoptotic bodies

**Q.** What about the vacuole formation (HepG2 cells; HepG2, 24 h) of the same molecule?
**A.** induces vacuole formation
